How the values were obtained:
[1] = test system: Long-Evans rat pups (term neonatal HIE model); experiment: Brain structure, hematoxylin and eosin coronal sections at P30; settings: HI
Protocol: A well-established Vannucci rat model of term neonatal HIE, which combined a left common carotid artery ligation and a 2 hour exposure to hypoxia (8% oxygen) in 10-day-old (P10) rat pups, was used for the experiments, since this model is generally recognized to mimic the brain injuries observed in human term asphyxiated newborns. Briefly, the 10-day-old male Long-Evans rat pups were weighed and then deeply anesthetized with an intraperitoneal injection of fentanyl (0.2 mg/kg) and midazolam (1 mg/kg) to the point of unresponsiveness to noxious stimulation. Lidocaine-prilocaine cream (EMLA®; AstraZeneca Inc.) was applied to the ventral neck skin 30 minutes before surgery. The skin was cleaned with 2% chlorhexidine solution followed by 70% alcohol. A vertical incision was made along the ventral surface of the neck. The left common carotid artery was located, isolated, and then ligated with a single tight suture. Following the unilateral ligation, the skin incision was closed with an adhesive (n-butyl cyanoacrylate; 3 M VetBond Tissue Adhesive®; 3 M USA). The anesthesia was reversed with an intraperitoneal injection of naloxone (0.1 mg/kg) and flumazenil (1 mg/kg). […] For each rat pup, anesthesia time and surgical time were kept to a minimal time of less than 5-10 minutes. The pups were allowed to recover for approximately 1.5 h after surgery and then were placed in a sealed hypoxia chamber (Plastic Concepts, North Billerica, USA). The sealed chamber was infused with nitrogen until a level of 8% oxygen was reached, which was maintained for 2 h (oxygen analyzer model 600, Engineered Systems & Designs, Newark, Del.). The pups were allowed to recover for 30 minutes and then were returned to their cages with the mother. The rats undergoing the whole procedure were considered as the hypoxic-ischemic (HI) group (n=10-12 animals/groups). Sham operated rat pups (identical procedure as the HI group, but not the ligation and hypoxia) served as the control group (n=10-12 animals/groups). […]

[2] = test system: Long-Evans rat pups (neonatal HI); experiment: Cerebellum injury after neonatal HI; assay type: in vivo; settings: P30
Protocol: Neonatal HI was induced in male Long-Evans rat pups at postnatal day 10 (P10) by left common carotid ligation followed by a 2-hour exposure to 8% oxygen; sham operated rat pups served as the control. […] At P30, the rats were sacrificed, and the cerebellum was extracted. The internal granular layers and molecular layers of the cerebellum were measured across all groups on cresyl violet-stained cerebellum sections. Astrocytes expressing Vascular Endothelial Growth Factor (VEGF) in the internal granular layers and molecular layers were quantified using immunohistochemistry.

[3] = test system: Long-Evans rat pups (term neonatal HIE model); experiment: Retinal histology, thicknesses of retinal layers at P30; assay type: in vivo; design: Effect size, RPE thickness / Effect size, OS thickness / Effect size, IS thickness / Effect size, ONL thickness / Effect size, OPL thickness / Effect size, INL thickness / Effect size, IPL thickness / Effect size, total thickness: scale not given here; settings: for Effect size, INL thickness / Effect size, IPL thickness / Effect size, IS thickness / Effect size, ONL thickness / Effect size, OPL thickness / Effect size, OS thickness / Effect size, RGC/FL thickness / Effect size, RPE thickness / Effect size, total thickness: compared to HI vehicle rat pups; for INL thickness / IPL thickness / IS thickness / ONL thickness / OPL thickness / OS thickness (outer segment) / RGC/FL thickness / RPE thickness / Total thickness: left eye, P30
Protocol: A well-established rat model of term neonatal HIE (Vannucci model) (Patel S D et al., 2014, Patel S D et al., 2015; […] et al., 2009; […] et al., 2009; Rice J E, 3rd et al., 1981) and produces concomitant retinal injury (Jung S et al., 2015). Rats undergoing both the ligation and hypoxia were considered the HI group. Sham operated rats (identical procedure as the HI group, but without ligation and hypoxia) served as the control group. […] Different doses of sildenafil-i.e., low (2 mg/kg), medium (10 mg/kg), and high (50 mg/kg)-were used in the HI and sham rat pups (n=4-7 animals/group). At P30, the animals were sacrificed, and the eyes were enucleated. Retinal histology was performed as per a previously described protocol (Jung S et al., 2015). […] Then, the retinal layer thickness was plotted against eccentricity to obtain the spider graphs (FIG. 7B).

CCCc1nn(C)c2c(=O)[nH]c(-c3cc(S(=O)(=O)N4CCN(C)CC4)ccc3OCC)nc12 [sildenafil]
total brain size, median (IQR) ([1]; high-dose sildenafil, not different from sham vehicle): 93.05 (91.53; 93.95) | total brain size, median (IQR) ([1]; low-dose sildenafil, p<0.05 vs sham vehicle): 92.19 (81.51; 97.58) | total brain size, median (IQR) ([1]; medium-dose sildenafil, not different from sham vehicle): 94.05 (84.4; 95.0) | thickness of internal granular layers and molecular layers of the cerebellum ([2]; oral sildenafil 2, 10 or 50 mg/kg twice daily 7 days): improvement in the overall thickness of these layers | VEGF expressing astrocytes in cerebellum ([2]; oral sildenafil): reduction of VEGF expressing astrocytes | thicknesses of affected retinal layers, response ([3]; HI, 10 mg/kg and 50 mg/kg doses): significantly improved response in terms of thicknesses of all the affected layers | Effect size, INL thickness ([3]; HI, Sild 2 mg/kg): 4.94 | Effect size, IPL thickness ([3]; HI, Sild 2 mg/kg): 0.11 | Effect size, IS thickness ([3]; HI, Sild 2 mg/kg): 2.16 | Effect size, ONL thickness ([3]; HI, Sild 2 mg/kg): 0.71 | Effect size, OPL thickness ([3]; HI, Sild 2 mg/kg): 4.91 | Effect size, OS thickness ([3]; HI, Sild 2 mg/kg): 0.40 | Effect size, RGC/FL thickness ([3]; HI, Sild 2 mg/kg): 1.37 | Effect size, RPE thickness ([3]; HI, Sild 2 mg/kg): 0.25 | Effect size, total thickness ([3]; HI, Sild 2 mg/kg): 14.72 | Effect size, INL thickness ([3]; HI, Sild 10 mg/kg): 19.74 | Effect size, IPL thickness ([3]; HI, Sild 10 mg/kg): 42.08 | Effect size, IS thickness ([3]; HI, Sild 10 mg/kg): −7.24 | Effect size, ONL thickness ([3]; HI, Sild 10 mg/kg): −19.22 | Effect size, OPL thickness ([3]; HI, Sild 10 mg/kg): 8.67 | Effect size, OS thickness ([3]; HI, Sild 10 mg/kg): −8.55 | Effect size, RGC/FL thickness ([3]; HI, Sild 10 mg/kg): 18.37 | Effect size, RPE thickness ([3]; HI, Sild 10 mg/kg): −0.73 | Effect size, total thickness ([3]; HI, Sild 10 mg/kg): 53.09 | Effect size, INL thickness ([3]; HI, Sild 50 mg/kg): 21.65 | Effect size, IPL thickness ([3]; HI, Sild 50 mg/kg): 41.40 | Effect size, IS thickness ([3]; HI, Sild 50 mg/kg): −7.50 | Effect size, ONL thickness ([3]; HI, Sild 50 mg/kg): −17.36 | Effect size, OPL thickness ([3]; HI, Sild 50 mg/kg): 8.95 | Effect size, OS thickness ([3]; HI, Sild 50 mg/kg): −9.86 | Effect size, RGC/FL thickness ([3]; HI, Sild 50 mg/kg): 16.59 | Effect size, RPE thickness ([3]; HI, Sild 50 mg/kg): −0.59 | Effect size, total thickness ([3]; HI, Sild 50 mg/kg): 53.25 | topographic retinal thickness (spider graph) ([3]; HI, low-dose of sildenafil): did not seem to reverse any of the HI-induced changes in retinal thickness, except in the inferior retina | topographic retinal thickness (spider graph) ([3]; HI, medium and high doses of sildenafil): nearly normal inner retina at almost all retinal eccentricities | INL thickness ([3]; HI, Sild 2 mg/kg): 14.71 ± 2.57 μm | IPL thickness ([3]; HI, Sild 2 mg/kg): 2.95 ± 2.60 μm | IS thickness ([3]; HI, Sild 2 mg/kg): 23.83 ± 3.12 μm | ONL thickness ([3]; HI, Sild 2 mg/kg): 70.88 ± 2.88 μm | OPL thickness ([3]; HI, Sild 2 mg/kg): 5.72 ± 3.05 μm | OS thickness (outer segment) ([3]; HI, Sild 2 mg/kg): 38.14 ± 3.66 μm | RGC/FL thickness ([3]; HI, Sild 2 mg/kg): 2.28 ± 2.28 μm | RPE thickness ([3]; HI, Sild 2 mg/kg): 8.88 ± 0.24 μm | Total thickness ([3]; HI, Sild 2 mg/kg): 167.28 ± 2.63 μm | INL thickness ([3]; HI, Sild 10 mg/kg): 29.50 ± 1.70 μm | IPL thickness ([3]; HI, Sild 10 mg/kg): 44.93 ± 7.35 μm | IS thickness ([3]; HI, Sild 10 mg/kg): 14.43 ± 1.15 μm | ONL thickness ([3]; HI, Sild 10 mg/kg): 50.95 ± 0.76 μm | OPL thickness ([3]; HI, Sild 10 mg/kg): 9.48 ± 0.38 μm | OS thickness (outer segment) ([3]; HI, Sild 10 mg/kg): 29.18 ± 2.14 μm | RGC/FL thickness ([3]; HI, Sild 10 mg/kg): 19.28 ± 3.36 μm | RPE thickness ([3]; HI, Sild 10 mg/kg): 7.89 ± 0.35 μm | Total thickness ([3]; HI, Sild 10 mg/kg): 205.64 ± 14.20 μm | INL thickness ([3]; HI, Sild 50 mg/kg): 31.42 ± 1.66 μm | IPL thickness ([3]; HI, Sild 50 mg/kg): 44.25 ± 11.86 μm | IS thickness ([3]; HI, Sild 50 mg/kg): 14.16 ± 0.25 μm | ONL thickness ([3]; HI, Sild 50 mg/kg): 52.81 ± 1.06 μm | OPL thickness ([3]; HI, Sild 50 mg/kg): 9.76 ± 0.84 μm | OS thickness (outer segment) ([3]; HI, Sild 50 mg/kg): 27.87 ± 2.09 μm | RGC/FL thickness ([3]; HI, Sild 50 mg/kg): 17.50 ± 4.07 μm | RPE thickness ([3]; HI, Sild 50 mg/kg): 8.03 ± 0.27 μm | Total thickness ([3]; HI, Sild 50 mg/kg): 205.80 ± 14.22 μm | photoreceptor degeneration ([3]; present example (rat pups)): did not induce photoreceptor degeneration
